From US4698352A, “4-oxo-1,4-dihydronicotinic acid derivatives, salts thereof, and antibacterial agents containing the same” (Toyama Chemical Co., Ltd., priority 1982, dated 1987)
Converted amounts (≈) assume the structure as drawn. Where two headings read alike, the source gives them in different places.

Key:
Assay in all cases: Antibacterial activity (MIC), agar dilution
Format in all cases: cell-based
[1] = test system: Ps. aeruginosa GN3379*; conditions: Pseudomonas aeruginosa, Ps. aeruginosa GN3379, penicillinase-producing, 10^6 cells per ml
Excerpt: (§1) The amount of bacteria inoculated was 10^4 cells per plate (10^6 cells per ml).
(§2) * Penicillinase-producing bacteria

[2] = test system: E. coli TK-3*; conditions: Escherichia coli, 20 h, E. coli TK-3, penicillinase-producing; 10^6 cells per ml; read-out: MIC
Excerpt: as §1, §2

[3] = test system: Kl. pneumoniae Y-4*; conditions: Klebsiella pneumoniae, 20 h, Kl. pneumoniae Y-4, penicillinase-producing; 10^6 cells per ml; read-out: MIC
Excerpt: as §1, §2

[4] = test system: St. aureus F-137*; conditions: Staphylococcus aureus, 20 h, St. aureus F-137, penicillinase-producing; 10^6 cells per ml; read-out: MIC
Excerpt: as §1, §2

[5] = test system: E. coli NIHJ JC-2; conditions: Escherichia coli, NIHJJC2, 20 h, E. coli NIHJ JC-2; 10^6 cells per ml; 37° C., 20 hours; read-out: MIC
Excerpt: as §1

[6] = test system: Ent. cloacae IID977; conditions: Enterobacter cloacae, IID977, 20 h, Ent. cloacae IID977; 10^6 cells per ml; 37° C., 20 hours; read-out: MIC
Excerpt: as §1

[7] = test system: St. aureus FDA209P; conditions: Staphylococcus aureus, FDA209P, 20 h, St. aureus FDA209P; 10^6 cells per ml; 37° C., 20 hours; read-out: MIC
Excerpt: as §1

[8] = test system: Kl. pneumoniae Y-50; conditions: Klebsiella pneumoniae, Y50, 20 h, 10^6 cells per ml, 37° C., read-out: MIC
Excerpt: as §1

[9] = test system: Ps. aeruginosa S-68; conditions: Pseudomonas aeruginosa
Excerpt: as §1

[10] = test system: Pro. mirabilis T-111; conditions: Proteus mirabilis, 37° C.
Excerpt: as §1

[11] = test system: E. coli TK-111; conditions: Escherichia coli, TK111, 20 h, E. coli TK-111; 10^6 cells per ml; 37° C., 20 hours; read-out: MIC
Excerpt: as §1

[12] = test system: Kl. pneumoniae Y-41; conditions: Klebsiella pneumoniae, Y41, 10^6 cells per ml, 37° C., 20 hours, read-out: MIC
Excerpt: as §1

[13] = test system: Pro. vulgaris GN3027; conditions: Proteus vulgaris, GN3027, 20 h, Pro. vulgaris GN3027; 10^6 cells per ml; 37° C., 20 hours; read-out: MIC
Excerpt: as §1

[14] = test system: Aci. antitratus A-6; conditions: 20 h, Aci. antitratus A-6; 10^6 cells per ml; 37° C., 20 hours; read-out: MIC
Excerpt: as §1

[15] = test system: Pro. morganii T-216; conditions: Morganella morganii, T216, 10^6 cells per ml, 37° C., 20 hours, read-out: MIC
Excerpt: as §1

[16] = test system: Ps. aeruginosa IFO3445; conditions: Pseudomonas aeruginosa
Excerpt: as §1

[17] = test system: Ps. aeruginosa GN918**; conditions: Pseudomonas aeruginosa, 20 h; Ps. aeruginosa GN918, cephalospolinase-producing; 10^6 cells per ml; read-out: MIC
Excerpt: as §1
(§3) ** Cephalospolinase-producing bacteria

[18] = test system: Pro. vulgaris GN76**; conditions: Proteus vulgaris, 20 h; Pro. vulgaris GN76, cephalospolinase-producing; 10^6 cells per ml; read-out: MIC
Excerpt: as §1, §3

[19] = test system: E. coli GN5482**; conditions: Escherichia coli, 20 h; E. coli GN5482, cephalospolinase-producing; 10^6 cells per ml; read-out: MIC
Excerpt: as §1, §3

[20] = S68, Ps. aeruginosa S-68, 10^6 cells per ml, 37° C., 20 hours, read-out: MIC

| Compound | MIC [2] | MIC [3] | MIC [4] | MIC [5] | MIC [6] | MIC [7] | MIC [8] | MIC [9, 20] | MIC [11] | MIC [12] | MIC [13] | MIC [14] | MIC [15] | MIC [17] | MIC [18] | MIC [19] | MIC ([1]; GN3379, 20 h) | MIC ([10]; T111, 20 h, 10^6 cells per ml) | MIC ([16]; IFO3445, 20 h) | further results |
| --- | --- | --- | --- | --- | --- | --- | --- | --- | --- | --- | --- | --- | --- | --- | --- | --- | --- | --- | --- | --- |
| O=C(O)c1cn(-c2ccc(O)cc2F)c(C2CC=CCC2)cc1=O (stereo not drawn) | 3.13 µg/mL (≈ 9.5 µM) | 6.25 µg/mL (≈ 19 µM) | 0.39 µg/mL (≈ 1.18 µM) | 1.56 µg/mL (≈ 4.74 µM) | 3.13 µg/mL (≈ 9.5 µM) | 0.39 µg/mL (≈ 1.18 µM) | 0.78 µg/mL (≈ 2.37 µM) | 12.5 µg/mL (≈ 38 µM) | 0.39 µg/mL (≈ 1.18 µM) | 6.25 µg/mL (≈ 19 µM) | 0.1 µg/mL (≈ 0.304 µM) | 3.13 µg/mL (≈ 9.5 µM) | 3.13 µg/mL (≈ 9.5 µM) | 1.56 µg/mL (≈ 4.74 µM) | 0.78 µg/mL (≈ 2.37 µM) | 0.39 µg/mL (≈ 1.18 µM) |  |  |  | MIC ([1]; 20 h, read-out: MIC): 12.5 µg/mL (≈ 38 µM); MIC ([10]; T111, 10^6 cells per ml, 20 hours, read-out: MIC): 12.5 µg/mL (≈ 38 µM); MIC ([16]; Ps. aeruginosa IFO3445, 10^6 cells per ml, 37° C., 20 hours, read-out: MIC): 12.5 µg/mL (≈ 38 µM) |
| CN(C)c1ccc(-c2cc(=O)c(C(=O)O)cn2-c2ccc(O)c(F)c2)cc1 | 0.78 µg/mL (≈ 2.12 µM) | 3.13 µg/mL (≈ 8.5 µM) | 0.39 µg/mL (≈ 1.06 µM) | 0.39 µg/mL (≈ 1.06 µM) | 1.56 µg/mL (≈ 4.23 µM) | 0.39 µg/mL (≈ 1.06 µM) | 0.39 µg/mL (≈ 1.06 µM) | 1.56 µg/mL (≈ 4.23 µM) | 0.1 µg/mL (≈ 0.271 µM) | 3.13 µg/mL (≈ 8.5 µM) | 0.2 µg/mL (≈ 0.543 µM) | 0.39 µg/mL (≈ 1.06 µM) | 1.56 µg/mL (≈ 4.23 µM) | 12.5 µg/mL (≈ 33.9 µM) | 0.78 µg/mL (≈ 2.12 µM) | ≤ 0.05 µg/mL | 3.13 µg/mL (≈ 8.5 µM) | 3.13 µg/mL (≈ 8.5 µM) | 3.13 µg/mL (≈ 8.5 µM) |  |
| O=C(O)c1cn(-c2ccc(O)cc2)c(-c2ccc(-c3ccccn3)s2)cc1=O | 0.78 µg/mL (≈ 2 µM) | 3.13 µg/mL (≈ 8.02 µM) | 0.2 µg/mL (≈ 0.512 µM) | 0.39 µg/mL (≈ 0.999 µM) | 1.56 µg/mL (≈ 4 µM) | 0.2 µg/mL (≈ 0.512 µM) | 0.78 µg/mL (≈ 2 µM) |  | ≤ 0.05 µg/mL | 3.13 µg/mL (≈ 8.02 µM) | 0.1 µg/mL (≈ 0.256 µM) | 0.78 µg/mL (≈ 2 µM) | 1.56 µg/mL (≈ 4 µM) | 1.56 µg/mL (≈ 4 µM) | 0.78 µg/mL (≈ 2 µM) | ≤ 0.05 µg/mL | 3.13 µg/mL (≈ 8.02 µM) | 3.13 µg/mL (≈ 8.02 µM) | 3.13 µg/mL (≈ 8.02 µM) | MIC ([9]; S68, 20 h): 3.13 µg/mL (≈ 8.02 µM) |
